Experimental data from ChEMBL document CHEMBL4739717, “Methods of treating cartilage disorders through inhibition of clk and dyrk” (2020).

Experiments:
[1] = biological target: Dual specificity tyrosine-phosphorylation-regulated kinase 1A (Homo sapiens, UniProt Q13627); assay: Inhibition of recombinant DYRK1A (unknown origin) using Ser/Thr 18 peptide as substrate incubated for 1 hr in presence of ATP by FRET assay
[2] = Effect on Wnt signaling pathway in human SW480 cells harbouring TCF/LEF luciferase reporter gene and SP5-Luc reporter gene incubated for 36 to 48 hrs by luminescence assay; type: cell-based
[3] = Induction of chondrogenesis in human MSC assessed as incubated for 6 days by rhodamine B and Nile red staining based imaging analysis; type: functional; settings: bmmsc
[4] = Induction of chondrogenesis in human MSC assessed as maximum activity at 300 nM incubated for 6 days by rhodamine B and Nile red staining based imaging analysis relative to control; type: functional; settings: BMMSC, 144 h, time 6 day

Row | Structure (SMILES) | EC50 [1] | EC50 [2] | EC50 [3] | Emax at 0.3 µM [4]
1 | CC(C)(C)C(=O)Nc1cncc(-c2ccc3[nH]nc(-c4nc5c(-c6ccc(F)s6)ccnc5[nH]4)c3c2)c1 | 98 nM | 16.7 nM | 30 nM | 120%
2 | O=C(Nc1cncc(-c2cnc3[nH]nc(-c4nc5c(-c6cccc(F)c6)cncc5[nH]4)c3c2)c1)C1CC1 | 75 nM | 11 nM | 10 nM | 148%
3 | COc1ccc(NC(=O)c2n[nH]c3ccc(-c4cncc(CN5CCCCC5)c4)cc23)cn1 | 1 nM | 15 nM | 300 nM | 138%
4 | COc1cccc(-c2cncc3[nH]c(-c4n[nH]c5ccc(-c6cccnc6)nc45)nc23)c1 | 30 nM | > 10000 nM | 30 nM | 59.2%
5 | Nc1cncc(-c2cnc3[nH]nc(-c4nc5c(-c6ccccc6F)ccnc5[nH]4)c3c2)c1 | 50 nM | 12.3 nM | 300 nM | 59.9%
6 | Nc1cncc(-c2ccc3[nH]nc(-c4nc5c(-c6ccccc6F)cncc5[nH]4)c3n2)c1 | 7 nM | > 10000 nM | 10 nM | 98.2%
7 | CC(C)C(=O)Nc1cncc(-c2ccc3[nH]nc(-c4nc5c(-c6ccccc6F)cncc5[nH]4)c3n2)c1 | 30 nM | > 10000 nM | 10 nM | 181%
8 | O=C(Nc1cncc(-c2cc3c(-c4cc5cnccc5[nH]4)n[nH]c3cn2)c1)c1ccccc1 | 3 nM | 580 nM | 10 nM | 152%
9 | O=C(Nc1cncc(-c2ccc3[nH]nc(-c4nc5c(-c6ccc(F)cc6)cncc5[nH]4)c3c2)c1)C1CCC1 | 73 nM | 5.7 nM | 100 nM | 203%
10 | Nc1cncc(-c2cc3c(-c4cc5c(-c6ccccc6F)nccc5[nH]4)n[nH]c3cn2)c1 | 5 nM | 224 nM | 10 nM | 117%
11 | Nc1cncc(-c2ccc3[nH]nc(-c4nc5c(-c6ccccc6F)nccc5[nH]4)c3n2)c1 | 8 nM | > 10000 nM | 10 nM | 108%
12 | CN1CCN(c2ccnc3[nH]c(-c4n[nH]c5cnc(-c6cncc(CNCC7CCCC7)c6)cc45)cc23)CC1 | 51 nM | > 10000 nM | 300 nM | 150%
13 | CC1CCN(Cc2cncc(-c3ccc4[nH]nc(C(=O)Nc5cccnc5)c4c3)c2)CC1 |  | 7 nM | 30 nM | 94.4%
14 | CCC(=O)Nc1cncc(-c2ccc3[nH]nc(-c4nc5c(N6CCCCC6)cncc5[nH]4)c3n2)c1 | 16 nM | > 10000 nM | 900 nM | 69.8%
15 | O=C(Nc1ccnc(C(F)(F)F)c1)c1n[nH]c2ccc(-c3cncc(CN4CCCCC4)c3)cc12 | 4 nM | 36.4 nM | 100 nM | 69%
16 | c1cncc(-c2ccc3[nH]nc(-c4nc5c(-c6cccnc6)ccnc5[nH]4)c3n2)c1 | 28 nM | 1510 nM | 300 nM | 94.6%
17 | CN(C)c1cncc(-c2cc3c(-c4cc5cnccc5[nH]4)n[nH]c3cn2)c1 | 12 nM | 3060 nM | 300 nM | 101%
18 | Nc1cncc(-c2ccc3[nH]nc(-c4cc5c(-c6cccnc6)nccc5[nH]4)c3c2)c1 | 2 nM | 146 nM | 100 nM | 178%
19 | Cc1ccncc1-c1ccc2[nH]nc(-c3cc4ccncc4[nH]3)c2c1 | 21 nM | 191 nM | 300 nM | 161%
20 | Fc1cccc(-c2ccnc3[nH]c(-c4n[nH]c5ncc(-c6cn[nH]c6)cc45)nc23)c1 | 16 nM | 30.2 nM | 100 nM | 110%
21 | FC1(F)CCN(Cc2cncc(-c3ccc4[nH]nc(-c5cc6cnccc6[nH]5)c4n3)c2)C1 | 3 nM | 45 nM | 300 nM | 134%
22 | c1csc(-c2ccnc3[nH]c(-c4n[nH]c5ccc(-c6cncc(OC7CCNCC7)c6)nc45)cc23)c1 | 43 nM | 3550 nM | 300 nM | 51.4%
23 | CC(C)Nc1cncc(-c2ccc3[nH]nc(-c4nc5c(-c6ccoc6)nccc5[nH]4)c3c2)c1 | 44 nM | 43.5 nM | 30 nM | 90.2%
24 | COc1ccc(NC(=O)c2n[nH]c3ccc(-c4cncc(CN5CCC(F)(F)C5)c4)cc23)cn1 |  | 5 nM | 100 nM | 72.2%
25 | CN(C)Cc1cncc(-c2ccc3[nH]nc(-c4cc5c(N6CCCCC6)cccc5[nH]4)c3c2)c1 | 71 nM | 575 nM | 10 nM | 205%
26 | Fc1ccc(-c2cncc3[nH]c(-c4n[nH]c5cnc(-c6cncc(CN7CCC(F)(F)C7)c6)cc45)cc23)cc1 | 30 nM | 3260 nM | 100 nM | 78.4%

Row | Structure (SMILES) | EC50 [1] | EC50 [2] | EC50 [3] | Emax at 0.3 µM [4]
27 | CN(C)Cc1cncc(-c2cc3c(-c4nc5c(-c6cccc(F)c6)cccc5[nH]4)n[nH]c3cn2)c1 | 15 nM | 82.2 nM | 100 nM | 311%
28 | CN1CCN(c2cccc3[nH]c(-c4n[nH]c5ccc(-c6cncc(CN7CCCCC7)c6)cc45)cc23)CC1 | 35 nM | 4970 nM | 100 nM | 198%
29 | CC(C)(C)C(=O)Nc1cncc(-c2cnc3[nH]nc(-c4nc5c(-c6ccoc6)cncc5[nH]4)c3c2)c1 | 12 nM | 70 nM | 30 nM | 144%
30 | CN1CCN(c2ccnc3[nH]c(-c4n[nH]c5ncc(-c6cn[nH]c6)cc45)cc23)CC1 | 35 nM | > 10000 nM |  | 20.1%
31 | CC(C)(C)C(=O)Nc1cncc(-c2cnc3[nH]nc(-c4cc5c(-c6ccncc6)cncc5[nH]4)c3c2)c1 | 5 nM | > 10000 nM |  | 33.6%
32 | c1cncc(-c2cncc3[nH]c(-c4n[nH]c5ncc(-c6cncnc6)cc45)cc23)c1 | 7 nM | > 10000 nM |  | 24.1%
33 | CCC(=O)Nc1cncc(-c2cnc3[nH]nc(-c4nc5c(-c6ccc(F)cc6)cncc5[nH]4)c3c2)c1 | 11 nM | 11 nM | 300 nM | 143%
34 | CN(C)CCNc1cc(F)cc(-c2cncc3[nH]c(-c4n[nH]c5ncc(-c6cccnc6)cc45)nc23)c1 | 5 nM | 21 nM | 300 nM | 129%
35 | CN1CCN(c2cncc3[nH]c(-c4n[nH]c5ccc(-c6cncc(NC(=O)CC(C)(C)C)c6)cc45)cc23)CC1 | 12 nM | 3480 nM |  | 30.8%
36 | CN1CCN(c2nccc3[nH]c(-c4n[nH]c5ccc(-c6cncc(NC(=O)CC7CCNCC7)c6)cc45)cc23)CC1 | 25 nM | > 10000 nM |  | 42.8%
37 | Nc1cncc(-c2cnc3[nH]nc(-c4cc5c(-c6ccccc6F)nccc5[nH]4)c3c2)c1 | 31 nM | 197 nM | 30 nM | 86%
38 | O=C(Nc1cncc(-c2ccc3[nH]nc(-c4cc5c(-c6ccncc6)nccc5[nH]4)c3c2)c1)C1CCCC1 | 11 nM | > 10000 nM | 30 nM | 114%
39 | c1cncc(-c2ccc3[nH]nc(-c4nc5c(-c6cccnc6)cncc5[nH]4)c3c2)c1 | 76 nM | 35 nM | 30 nM | 159%
40 | COc1cncc(-c2ccc3[nH]nc(-c4cc5c(-c6ccoc6)nccc5[nH]4)c3c2)c1 | 35 nM | 643 nM |  | 35.5%
41 | CC(C)(C)CC(=O)Nc1cncc(-c2ccc3[nH]nc(-c4nc5ccncc5[nH]4)c3c2)c1 | 3 nM | 21 nM | 100 nM | 152%
42 | Cc1ccncc1-c1ccc2[nH]nc(-c3nc4c(-c5ccsc5)nccc4[nH]3)c2c1 | 52 nM | 18.9 nM | 10 nM | 156%
43 | FC1(F)CCN(Cc2cncc(-c3ccc4[nH]nc(-c5cc6c(-c7cccnc7)ccnc6[nH]5)c4c3)c2)C1 | 10 nM | 523 nM |  | 20.3%
44 | Fc1ccccc1-c1nccc2[nH]c(-c3n[nH]c4cnc(-c5cn[nH]c5)cc34)cc12 | 63 nM | 30.5 nM | 10 nM | 89.2%
45 | CC(C)C(=O)Nc1cncc(-c2cc3c(-c4cc5c(-c6cccc(F)c6)cncc5[nH]4)n[nH]c3cn2)c1 | 65 nM | 1730 nM |  | 42.2%
46 | CN1CCN(c2ccc(NC(=O)c3n[nH]c4ccc(-c5cncc(CN6CCC(F)(F)C6)c5)cc34)cn2)CC1 |  | 4 nM | 30 nM | 80.9%
47 | c1cncc(-c2ccnc3[nH]c(-c4n[nH]c5ncc(-c6cncc(CN7CCCCC7)c6)cc45)cc23)c1 | 15 nM | > 10000 nM |  | 43.9%
48 | c1cncc(-c2ccnc3[nH]c(-c4n[nH]c5cnc(-c6cncc(CN7CCCC7)c6)cc45)cc23)c1 | 72 nM | > 10000 nM |  | 16.7%
49 | CC(C)C(=O)Nc1cncc(-c2ccc3[nH]nc(-c4cc5c(N6CCN(C)CC6)nccc5[nH]4)c3c2)c1 | 15 nM | 7690 nM |  | 21%
50 | FC1(F)CCN(Cc2cncc(-c3cnc4[nH]nc(-c5cc6c(-c7ccncc7)cncc6[nH]5)c4c3)c2)C1 | 13 nM | 1510 nM |  | 36.5%
51 | Cc1cncc(NC(=O)c2n[nH]c3ccc(-c4cncc(CN5CCCCC5)c4)cc23)c1 |  | 59 nM | 300 nM | 68.3%
52 | CN(C)Cc1cncc(-c2cc3c(-c4cc5c(-c6ccncc6)ccnc5[nH]4)n[nH]c3cn2)c1 | 71 nM | > 10000 nM |  | 33.4%
